Consider 17 compounds from patent US6342501B1, “Pyrrolo[2,3-d] pyrimidines as antiviral agents” (The Regents of the University of Michigan, priority 1994, dated 2002).

Where two headings read alike, the source gives them in different places. Bounds are passed on as bounds.

The test system of test [1] is human cytomegalovirus (HCMV). The test can be described thus: microbe, parasite or virus in culture. Type of test: cell-based, Towne strain. The settings on record: for IC50: Human betaherpesvirus 5, HFF, read-out: HCMV; for antiviral activity against HCMV (in words): comment on Table 1 data. The method, then:
(§1) The routine growth and passage of KB and BSC-1 cells was performed in monolayer cultures using minimal essential medium (MEM) with either Hanks salts [MEM(H)] or Earle salts [MEM(E)] supplemented with 10% calf serum. The sodium bicarbonate concentration was varied to meet the buffering capacity required. Cultures of diploid human foreskin fibroblast (HFF) or MRC-5 cells were grown in medium consisting of MEM(E) with 10% fetal bovine serum. Cells were passaged at 1:2 to 1:10 dilutions according to conventional procedures by using 0.05% trypsin plus 0.02% EDTA in a HEPES buffered salt solution (HBS) [Shipman, C., Jr., Proc. Soc. […] HFF and MRC-5 cells were passaged only at 1:2 dilutions. The Towne strain, plaque-purified isolate Po, of HCMV was kindly provided by Dr. Mark Stinski, University of Iowa. The KOS strain of HSV-1 was used in most experiments and was provided by Dr. Sandra K. Weller, University of Conn.
Stock HCMV was prepared by infecting HFF cells at a multiplicity of infection (m.o.i.) of <0.01 plaque-forming units (p.f.u.) per cell. Cell growth medium was changed every four days until cytopathology was evident in all cells (approximately 21 days). Supernatant fluids were retained as the virus stock.
Virus titers were determined using monolayer cultures of HFF cells for HCMV and monolayer cultures of BSC-1 cells for HSV-1 as described earlier [Prichard, M. N., et al., J. Virol. […] Briefly, HFF or BSC-1 cells were planted as described above in 96-well cluster dishes and incubated overnight at 37. degree. C. in a humidified 3% C02 -97% air atmosphere. The next day cultures were inoculated with HCMV or HSV-1 and serially diluted 1:3 across the remaining eleven columns of the 96-well plate. Cultures were incubated at 37. degree. C. for 2 hr to permit virus adsorption and then virus inoculum was replaced with 0.2 ml of fresh medium. Cultures were incubated for seven days for HCMV, two or three days for HSV-1, the medium was removed, and the cell sheets were stained with 0.1% crystal violet in 20% methanol.
HFF cells in 24-well cluster dishes were infected with approximately 100 p.f.u. of HCMV per cm^2 cell sheet using the procedures detailed above. Following virus adsorption, compounds dissolved in growth medium were added to duplicate wells in four to eight selected concentrations. After incubation at 37° C. for 7 to 10 days, cell sheets were fixed, stained with crystal violet and microscopic plaques enumerated as described above.
After virus adsorption, inoculum was replaced with 0.2 mL of fresh medium containing test compounds. The first row of 12 wells was left undisturbed and served as virus controls. Each well in the second row received an additional 0.1 mL of medium with test compound at three times the desired final concentration. The contents of the 12 wells were mixed by repeated pipetting and then serially diluted 1:3 along the remaining wells. In this manner, six compounds could be tested in duplicate on a single plate with concentrations from […]. Plates were incubated at 37° C. for seven days, subjected to one cycle of freezing and thawing; aliquots from each of the eight wells of a given column were transferred to the first column of a fresh 96-well monolayer culture of HFF cells. Contents were mixed and serially diluted 1:3 across the remaining eleven columns of the secondary plate. Each column of the original primary plate was diluted across a separate plate in this manner. Cultures were incubated, plaques were enumerated, and titers calculated as described above.
(§2) Dose-response relationships were constructed by linearly regressing the percent inhibition of parameters derived in the preceding sections against logarithm 10 drug concentrations. […] Samples containing positive controls (acyclovir for HSV-1 and ganciclovir for HCMV) were used in all assays.

The test system of test [2] is herpes simplex virus type 1 (HSV-1). The test can be described thus: HSV-1 ELISA in BSC-1 cells. The class given is cell-based, KOS strain. The note with it: read-out: HSV-1. As to the method:
as §1
High titer HSV-1 stocks were prepared by infecting BSC cells at an m.o.i. of <0.1 as detailed previously [Turk, S. R., et al., Antimicrob.
Ninety-six-well cluster dishes were planted with 10,000 BSC-1 cells per well in 200 μL per well of MEM(E) plus 10% calf serum. After overnight incubation at 37° C., selected drug concentrations in quadruplicate and HSV-1 at a concentration of 100 p.f.u./well were added. Following a 3-day incubation at 37° C., medium was removed, plates were blocked, rinsed, and horse radish peroxidase conjugated rabbit anti-HSV-1 antibody was added. Following removal of the antibody containing solution, plates were rinsed, and then developed by adding 150 μL per well of a solution of tetramethylbenzidine as substrate. The reaction was stopped with H2SO4 and absorbance was read at 450 and 570 nm. Drug effects were calculated as a percentage of the reduction in absorbance in the presence of each drug concentration compared to absorbance obtained with virus in the absence of drug.
as §2

The test system of test [3] is human foreskin fibroblasts (HFF cells). The test is described as follows: Cytotoxicity in stationary HFF cells (microscopic inspection of plaque assay cells). The class given is cell-based. The settings on record: read-out: HFF. The method, then:
(§3) Two different assays were used to explore cytotoxicity of selected compounds: (i) Cytotoxicity produced in stationary HFF cells was determined by microscopic inspection of cells used in plaque assays which were not affected by the virus [Turk, S. R., et al, Antimicrob.
as §2

The test system of a further test is KB cells. The test is described as follows: Cytotoxicity: KB cell growth (crystal violet staining). The class given is cell-based. The settings on record: Homo sapiens, read-out: KBgrv. The method, then:
as §3
Briefly, 96-well cluster dishes were planted with KB cells at 3000-5000 cells per well. After overnight incubation at 37° C., test compound was added in quadruplicate at six to eight concentrations. Plates were incubated at 37° C for 48 hours in a CO2 incubator, rinsed, fixed with 95% ethanol, and stained with 0.1% crystal violet. Acidified ethanol was added and plates read at 570 nm in a spectrophotometer designed to read 96-well ELISA assay plates.
as §2

The mark [4] stands for this setting: Human alphaherpesvirus 1, BSC-1, 72 h.
Setting [5] is: Human alphaherpesvirus 1, 72 h, Table 1, fifty-percent inhibitory concentration, ELISA, BSC-1 cells, 3-day incubation.
The mark [6] stands for this setting: Table 1, cytotoxicity, stationary HFF cells, visual.
The mark [7] stands for this setting: Table 1, cytotoxicity, KB cell growth, 48 hours.

As to `Cc1ccccc1Cn1cc(C(N)=O)c2c(N)ncnc21` [Compound 636, 4-amino-7-(2-methylbenzyl)-pyrrolo[2,3-d]pyrimidine-5-carboxamide], the IC50 in test [1] is 14.5 µM; in test [2] (setting [4]) it was greater than 100 µM; in test [3] (HFF), 100 µM; in the test on KB cells (KB, 48 h), no less than 222 µM.

For the compound `Cc1ccc(Cn2cc(C(N)=O)c3c(N)ncnc32)cc1` [Compound 658, 4-amino-7-(4-methylbenzyl)-pyrrolo [2,3-d]pyrimidine-5-carboxamide], the IC50 is 181 µM in test [1]; greater than 100 µM in test [2] (setting [4]); 141 µM in test [3] (HFF); no less than 222 µM with KB cells (KB, 48 h).

Consider `NC(=O)c1cn(Cc2ccccc2)c2ncnc(N)c12` [Compound 659, 4-amino-7-benzyl-pyrrolo[2,3-d]pyrimidine-5-carboxamide], for which the IC50 in test [1] is 171 µM; in test [2] (setting [4]) it was 32.6 µM; in test [3] (HFF), 118 µM; with KB cells (KB, 48 h), 75 µM.

For the compound `Cc1cccc(Cn2cc(C(N)=O)c3c(N)ncnc32)c1` [Compound 826, 4-amino-7-(3-methylbenzyl)-pyrrolo[2,3-d]pyrimidine-5-carboxamide], the IC50 in test [1] was no less than 222 µM; in test [2] (setting [4]), greater than 100 µM; in test [3] (HFF), no less than 222 µM; with KB cells (KB, 48 h), no less than 222 µM.

On to `COc1ccc(Cn2cc(C(N)=O)c3c(N)ncnc32)cc1` [Compound 839, 4-amino-7-(4-methoxybenzyl)-pyrrolo[2,3-d]pyrimidine-5-carboxamide], for which the IC50 was 13 µM in test [1]; 35 µM in test [2] (setting [4]); 127 µM in test [3] (HFF); 47 µM with KB cells (KB, 48 h). Further, the “antiviral activity against HCMV (in words)” value (from here on “antiviral activity”) in test [1] is “good to excellent antiviral activity”.

Take `CC(C)(C)c1ccc(Cn2cc(C(N)=O)c3c(N)ncnc32)cc1` [Compound 845, 4-amino-7-(4-t-butylbenzyl)-pyrrolo[2,3-d]pyrimidine-5-carboxamide]: the IC50 in test [1] stood at 28 µM; in test [2] (setting [4]), 50 µM; in test [3] (HFF), 100 µM; in the test on KB cells (KB, 48 h) it was 1 µM.

Take `N#Cc1c(N)n(CC=Cc2ccccc2)c2ncnc(N)c12` [Compound 1329, 4,6-diamino-7-(3-phenyl)prop-2-enyl-pyrrolo[2,3-d]pyrimidine-5-carbonitrile]: the IC50 in test [1] worked out at 19 µM; in test [2] (setting [5]) it was 40 µM; in test [3] (setting [6]) it was 46 µM; in the test on KB cells (setting [7]), 33 µM.

`N#Cc1c(Br)n(Cc2ccc([N+](=O)[O-])cc2)c2ncnc(N)c12` [Compound 1331, 4-amino-6-bromo-7-(4-nitrobenzyl)-pyrrolo[2,3-d]pyrimidine-5-carbonitrile]: the IC50 in test [1] was greater than 10 µM; in test [2] (setting [5]) it was greater than 100 µM; in test [3] (setting [6]) it was greater than 10 µM; with KB cells (setting [7]) it was greater than 100 µM.

With `N#Cc1c(Br)n(CCCc2ccccc2)c2ncnc(N)c12` [Compound 1347, 4-amino-6-bromo-7-(3-phenyl)propyl-pyrrolo[2,3-d]pyrimidine-5-carbonitrile], the IC50 in test [1] was greater than 10 µM; in test [2] (setting [5]) it was no less than 222 µM; in test [3] (setting [6]), greater than 10 µM; in the test on KB cells (setting [7]), greater than 100 µM.

For the compound `N#Cc1c(N)n(Cc2ccc([N+](=O)[O-])cc2)c2ncnc(N)c12` [Compound 1348, 4,6-diamino-7-(4-nitrobenzyl)-pyrrolo[2,3-d]pyrimidine-5-carbonitrile], the IC50 is 0.6 µM in test [1], 156 µM in test [2] (setting [5]), greater than 10 µM in test [3] (setting [6]) and greater than 100 µM in the test on KB cells (setting [7]). For the same compound, the “antiviral activity” value in test [1] is recorded as “good to excellent antiviral activity”.

For `N#Cc1c(N)n(CCCc2ccccc2)c2ncnc(N)c12` [Compound 1350, 4,6-diamino-7-(3-phenyl)propyl-pyrrolo[2,3-d]pyrimidine-5-carbonitrile], the IC50 in test [1] is 5 µM; in test [2] (setting [5]), 121 µM; in test [3] (setting [6]), greater than 100 µM; in the test with KB cells (setting [7]) it was 50 µM. For the same compound, the “antiviral activity” value in test [1] is on record as “excellent activity”.

Turning to `N#Cc1c(Br)n(CCc2ccccc2)c2ncnc(N)c12` [Compound 1351, 4-amino-6-bromo-7-(2-phenyl)ethyl-pyrrolo[2,3-d]pyrimidine-5-carbonitrile], the IC50 in test [1] was 1 µM; in test [2] (setting [5]) it was no less than 222 µM; in test [3] (setting [6]), greater than 100 µM; in the test on KB cells (setting [7]) it was greater than 100 µM. In test [1], the “antiviral activity” value is reported as “excellent activity”.

As to `N#Cc1c(N)n(Cc2ccc(N)cc2)c2ncnc(N)c12` [Compound 1352, 4,6-diamino-7-(4-aminobenzyl)-pyrrolo[2,3-d]pyrimidine-5-carbonitrile], the IC50 in test [1] is greater than 100 µM; in test [2] (setting [5]), 100 µM; in test [3] (setting [6]), greater than 100 µM; with KB cells (setting [7]), 146 µM. Besides, the “antiviral activity” value in test [1] was “good to excellent antiviral activity”.

As to `N#Cc1c(Br)n(Cc2ccc(F)cc2)c2ncnc(N)c12` [Compound 1353, 4-amino-6-bromo-7-(4-flurobenzyl)-pyrrolo[2,3-d]pyrimidine-5-carbonitrile], the IC50 was 1.4 µM in test [1], 60 µM in test [2] (setting [5]), 116 µM in test [3] (setting [6]) and greater than 100 µM in the test with KB cells (setting [7]).

On to `N#Cc1c(N)n(Cc2ccc(Cl)cc2)c2ncnc(N)c12` [Compound 1356, 4,6-diamino-7-(4-chlorobenzyl)-pyrrolo[2,3-d]pyrimidine-5-carbonitrile], for which the IC50 in test [1] was found to be 0.2 µM; in test [2] (setting [5]), 17 µM; in test [3] (setting [6]), 46 µM; with KB cells (setting [7]), 76 µM. The “antiviral activity” value in test [1] was “good to excellent antiviral activity”.

As for `N#Cc1cn(Cc2ccc([N+](=O)[O-])cc2)c2ncnc(N)c12` [Compound 1360, 4-amino-7-(4-nitrobenzyl)-pyrrolo[2,3-d]pyrimidine-5-carbonitrile], the IC50 was 1.6 µM in test [1], greater than 100 µM in test [2] (setting [5]), greater than 10 µM in test [3] (setting [6]) and greater than 100 µM in the test with KB cells (setting [7]). Besides, the “antiviral activity” value in test [1] was “good to excellent antiviral activity”.

Take `CNc1ncnc2c1c(C#N)c(Br)n2CCc1ccccc1` [Compound 1463, 4-methylamino-6-bromo-7-(2-phenyl)ethyl-pyrrolo[2,3-d]pyrimidine-5-carbonitrile]: the IC50 in test [1] and in test [3] (setting [6]) was greater than 10 µM in each case.
